Experimental data: PubChem BioAssay AID651650 (Sanford-Burnham Center for Chemical Genomics, 2012)
Active and inactive are the calls of the source.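 Rule for the calls: active = mean IC50 below 20 µM in each of the two panels, so potent in both; inactive = the rest.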

target: Neuropilin-1 (Homo sapiens) (UniProt O14786); experiment: blockers of CendR peptide binding to NRP-1 – biochemical, FP and AlphaScreen panel, dose response (AID 651650); conditions: NRP-1 b1b2 / RPARPAR peptide binding, FP or AlphaScreen; AlphaScreen, mean of runs
Sequence (O14786 whole entry, looked up): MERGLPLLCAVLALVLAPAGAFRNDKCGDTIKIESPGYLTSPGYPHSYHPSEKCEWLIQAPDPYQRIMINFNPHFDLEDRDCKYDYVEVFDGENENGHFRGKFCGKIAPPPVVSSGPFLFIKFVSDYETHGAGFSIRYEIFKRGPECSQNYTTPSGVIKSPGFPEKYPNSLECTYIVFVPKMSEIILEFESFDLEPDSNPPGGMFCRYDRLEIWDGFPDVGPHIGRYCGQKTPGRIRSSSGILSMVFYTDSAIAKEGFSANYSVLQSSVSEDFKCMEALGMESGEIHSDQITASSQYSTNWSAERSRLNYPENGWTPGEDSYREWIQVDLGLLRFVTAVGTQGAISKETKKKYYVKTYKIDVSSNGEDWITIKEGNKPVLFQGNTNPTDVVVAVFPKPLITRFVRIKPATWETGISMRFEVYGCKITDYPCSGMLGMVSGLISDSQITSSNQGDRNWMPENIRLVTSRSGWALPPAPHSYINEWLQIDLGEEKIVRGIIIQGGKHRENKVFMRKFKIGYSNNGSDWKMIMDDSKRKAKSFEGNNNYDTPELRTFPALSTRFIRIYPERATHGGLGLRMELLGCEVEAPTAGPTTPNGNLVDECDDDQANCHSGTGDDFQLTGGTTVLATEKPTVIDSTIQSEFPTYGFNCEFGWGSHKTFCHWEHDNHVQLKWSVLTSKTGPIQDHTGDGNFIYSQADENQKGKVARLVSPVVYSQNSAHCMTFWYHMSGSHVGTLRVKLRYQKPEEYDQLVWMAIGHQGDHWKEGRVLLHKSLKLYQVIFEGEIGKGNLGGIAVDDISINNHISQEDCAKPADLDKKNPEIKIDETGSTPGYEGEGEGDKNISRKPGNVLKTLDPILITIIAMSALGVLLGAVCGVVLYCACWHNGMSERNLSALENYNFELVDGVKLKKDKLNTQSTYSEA

SMILES | IC50
O=C(c1cccc(F)c1)N1CCN(c2ccc([N+](=O)[O-])c(N3CCCCC3)c2)CC1 | > 100 µM (inactive)
N#CC(C#N)=Cc1cc2ccccc2nc1N1CCCCC1 | > 100 µM (inactive)
COc1cc(C(=O)Nc2cc3c(cc2N2CCCCC2)n(C)c(=O)n3C)cc(OC)c1OC | inactive
Cc1ccc(C)c(-n2c(SCC(=O)NC(C(=O)O)C(C)C)nnc2-c2cccc(Cl)c2)c1 (stereo not given) | > 100 µM (inactive)
Cc1ccc(Cl)c(NC(=O)CSc2cccc[n+]2[O-])c1Cl | > 100 µM (inactive)
Cc1ccc2cc(CN(c3ccccc3C)S(=O)(=O)c3ccccc3)c(=O)[nH]c2c1 | > 100 µM (inactive)
CCOc1ccc(S(=O)(=O)NNC(=O)c2cc3ccccc3o2)cc1 | > 100 µM (inactive)
Oc1ccc(-c2nc3ncccn3c2Nc2ccc3c(c2)OCO3)cc1 | > 100 µM (inactive)
CCCc1c(C)nc(N2CCN(c3ccccc3OC)CC2)[nH]c1=O | > 100 µM (inactive)
CN(C)/C=C/c1c([N+](=O)[O-])c2ccc(O)cc2n1-c1ccccc1 | > 100 µM (inactive)
N=C1C(=O)OCC1c1cc(Cl)ccc1NC(=O)Nc1ccccc1 (stereo not given) | inactive
CCCn1c(C)cc(C(=O)CSc2nc3nc(C)cc(C)n3n2)c1C | > 100 µM (inactive)
C/C(=N\NC(=O)c1cc(O)ccc1O)c1cccc(NC(=O)c2cccc(Cl)c2)c1 | > 100 µM (inactive)
CCOC(=O)N1CCN(C(=O)Nc2ccc3nc(C)c(C)nc3c2)CC1 | > 100 µM (inactive)
O=C(NCCN1CCN(C(=O)c2cccc(OC(F)F)c2)CC1)c1cccc(OC(F)F)c1 | > 100 µM (inactive)
O=C1CCC[C@@H]2Cc3nc4cc5c(cc4cc3[C@@H]3CCN1[C@H]23)OCO5 | > 100 µM (inactive)
Cc1ccc(N(C(=O)c2ccc(CN3CCOCC3)o2)C(C(=O)NCCC(C)C)c2cccs2)c(C)c1 (stereo not given) | > 100 µM (inactive)
Cc1ccc(NC(=O)c2ccc3c(c2)S(=O)(=O)c2ccccc2C3=O)cc1S(=O)(=O)N1CCOCC1 | > 100 µM (inactive)
CCc1ccccc1NC(=O)c1ccccc1N1C(=O)C2C3C=CC(C3)C2C1=O (stereo not given) | inactive
Cc1ccc(S(=O)(=O)NCC(=O)N(c2ccccc2)C(C(=O)NCc2ccccc2)c2ccco2)cc1 (stereo not given) | > 100 µM (inactive)
CCOC(=O)Cc1ccc(NS(=O)(=O)c2ccc(SC)cc2)cc1 | > 100 µM (inactive)
CC1(c2ccccc2)CC(C)(C)n2c(O)c(C3=NC(=S)NC3=O)c3cccc1c32 (stereo not given) | > 100 µM (inactive)

SMILES | IC50
O=C(c1ncn(Cc2ccccc2)c1C(=O)N1CCc2ccccc2C1)N1CCc2ccccc2C1 | > 100 µM (inactive)
COC(=O)C1=C(c2ccc(F)cc2OCc2ccccc2)C[C@@H]2CC[C@H]1N2C(=O)NCCNC(C)=O | 9.37 µM
COC(=O)C1=C(C)NC(C)=C(C(=O)OC)C1C(=O)OC(C)C(=O)c1ccccc1 (stereo not given) | > 100 µM (inactive)
CCC1=C(OC(=O)N(CC)CC)N2C(=O)OC(=NCCOC)[C@]2(Cc2ccccc2)[C@H]2C1=CC[C@H]1C(=O)N(CC(=O)OC)C(=O)[C@H]12 | > 100 µM (inactive)
CC(C)C1=C2CCCCC2NC(=O)N1 (stereo not given) | > 100 µM (inactive)
CC1(C)CN=C(Nc2ccc(F)c(Cl)c2)S1 | 18.9 µM
Cc1ccccc1OCC1Cc2c(nc(N)c(C#N)c2N)O1 (stereo not given) | > 100 µM (inactive)
Cc1cc(N/C(=N/S(=O)(=O)c2cc(F)ccc2F)c2ccccc2)n(-c2ccccc2)n1 | > 100 µM (inactive)
COc1cccc(C(=O)N2N=C(c3ccccc3)CC2(O)C(F)(F)F)c1 (stereo not given) | > 100 µM (inactive)
CCCCc1ccc(S(=O)(=O)N2CCC3(CC2)OCCO3)cc1 | > 100 µM (inactive)
COC(=O)c1ccccc1NC(=O)CSc1nc(C)cc(C)n1 | > 100 µM (inactive)
CCCS(=O)(=O)N1CCC(C(=O)NC2CCCC(C)C2C)CC1 (stereo not given) | 17.5 µM
Cc1nnc(SC(C)C(=O)Nc2ccc(S(=O)(=O)NC3CCCCC3)cc2)s1 (stereo not given) | > 100 µM (inactive)
CC(=O)c1cccc(S(=O)(=O)N2CCC(C(=O)O)(c3ccccc3)CC2)c1 | > 100 µM (inactive)
CC(=O)Oc1cc2c(c3ccccc13)CCC2=O | > 100 µM (inactive)
COC(=O)n1c(=O)oc2ccccc21 | > 100 µM (inactive)
O=C1c2cc([N+](=O)[O-])cc3cc([N+](=O)[O-])cc(c23)C(=O)N1c1ccccn1 | > 100 µM (inactive)
CCn1c(=O)c(C(=O)NCCNCCO)c(O)c2ccccc21 | > 100 µM (inactive)
CCN(Cc1ccncc1)C(=O)c1cc(COc2ccc(F)cc2F)on1 | > 100 µM (inactive)
CCC(=O)Nc1nc2nc(-c3ccccc3)cc(-c3ccccc3)n2n1 | > 100 µM (inactive)
CC(C)COC(=O)C1C2C=CC3(CN(C(C)c4ccc(Br)cc4)C(=O)C13)O2 (stereo not given) | > 100 µM (inactive)
Cc1cc2cc(CNC(=O)c3ccco3)ccc2n1C | > 100 µM (inactive)

same assay, conditions: NRP-1 b1b2 / RPARPAR peptide binding, FP or AlphaScreen; AlphaScreen, run 1; individual panel run IC50

SMILES | IC50
O=C(c1cccc(F)c1)N1CCN(c2ccc([N+](=O)[O-])c(N3CCCCC3)c2)CC1 | > 100 µM
N#CC(C#N)=Cc1cc2ccccc2nc1N1CCCCC1 | > 100 µM
COc1cc(C(=O)Nc2cc3c(cc2N2CCCCC2)n(C)c(=O)n3C)cc(OC)c1OC | 85 µM
Cc1ccc(C)c(-n2c(SCC(=O)NC(C(=O)O)C(C)C)nnc2-c2cccc(Cl)c2)c1 (stereo not given) | > 100 µM
Cc1ccc(Cl)c(NC(=O)CSc2cccc[n+]2[O-])c1Cl | > 100 µM
Cc1ccc2cc(CN(c3ccccc3C)S(=O)(=O)c3ccccc3)c(=O)[nH]c2c1 | > 100 µM
CCOc1ccc(S(=O)(=O)NNC(=O)c2cc3ccccc3o2)cc1 | > 100 µM
Oc1ccc(-c2nc3ncccn3c2Nc2ccc3c(c2)OCO3)cc1 | > 100 µM
CCCc1c(C)nc(N2CCN(c3ccccc3OC)CC2)[nH]c1=O | > 100 µM
CN(C)/C=C/c1c([N+](=O)[O-])c2ccc(O)cc2n1-c1ccccc1 | > 100 µM
N=C1C(=O)OCC1c1cc(Cl)ccc1NC(=O)Nc1ccccc1 (stereo not given) | 90.5 µM
CCCn1c(C)cc(C(=O)CSc2nc3nc(C)cc(C)n3n2)c1C | > 100 µM
C/C(=N\NC(=O)c1cc(O)ccc1O)c1cccc(NC(=O)c2cccc(Cl)c2)c1 | > 100 µM
CCOC(=O)N1CCN(C(=O)Nc2ccc3nc(C)c(C)nc3c2)CC1 | > 100 µM
O=C(NCCN1CCN(C(=O)c2cccc(OC(F)F)c2)CC1)c1cccc(OC(F)F)c1 | > 100 µM
O=C1CCC[C@@H]2Cc3nc4cc5c(cc4cc3[C@@H]3CCN1[C@H]23)OCO5 | > 100 µM
Cc1ccc(N(C(=O)c2ccc(CN3CCOCC3)o2)C(C(=O)NCCC(C)C)c2cccs2)c(C)c1 (stereo not given) | > 100 µM
Cc1ccc(NC(=O)c2ccc3c(c2)S(=O)(=O)c2ccccc2C3=O)cc1S(=O)(=O)N1CCOCC1 | > 100 µM
CCc1ccccc1NC(=O)c1ccccc1N1C(=O)C2C3C=CC(C3)C2C1=O (stereo not given) | 96.8 µM
Cc1ccc(S(=O)(=O)NCC(=O)N(c2ccccc2)C(C(=O)NCc2ccccc2)c2ccco2)cc1 (stereo not given) | > 100 µM
CCOC(=O)Cc1ccc(NS(=O)(=O)c2ccc(SC)cc2)cc1 | > 100 µM
CC1(c2ccccc2)CC(C)(C)n2c(O)c(C3=NC(=S)NC3=O)c3cccc1c32 (stereo not given) | > 100 µM

SMILES | IC50
O=C(c1ncn(Cc2ccccc2)c1C(=O)N1CCc2ccccc2C1)N1CCc2ccccc2C1 | > 100 µM
COC(=O)C1=C(c2ccc(F)cc2OCc2ccccc2)C[C@@H]2CC[C@H]1N2C(=O)NCCNC(C)=O | 9.37 µM
COC(=O)C1=C(C)NC(C)=C(C(=O)OC)C1C(=O)OC(C)C(=O)c1ccccc1 (stereo not given) | > 100 µM
CCC1=C(OC(=O)N(CC)CC)N2C(=O)OC(=NCCOC)[C@]2(Cc2ccccc2)[C@H]2C1=CC[C@H]1C(=O)N(CC(=O)OC)C(=O)[C@H]12 | > 100 µM
CC(C)C1=C2CCCCC2NC(=O)N1 (stereo not given) | > 100 µM
CC1(C)CN=C(Nc2ccc(F)c(Cl)c2)S1 | 18.9 µM
Cc1ccccc1OCC1Cc2c(nc(N)c(C#N)c2N)O1 (stereo not given) | > 100 µM
Cc1cc(N/C(=N/S(=O)(=O)c2cc(F)ccc2F)c2ccccc2)n(-c2ccccc2)n1 | > 100 µM
COc1cccc(C(=O)N2N=C(c3ccccc3)CC2(O)C(F)(F)F)c1 (stereo not given) | > 100 µM
CCCCc1ccc(S(=O)(=O)N2CCC3(CC2)OCCO3)cc1 | > 100 µM
COC(=O)c1ccccc1NC(=O)CSc1nc(C)cc(C)n1 | > 100 µM
CCCS(=O)(=O)N1CCC(C(=O)NC2CCCC(C)C2C)CC1 (stereo not given) | 17.5 µM
Cc1nnc(SC(C)C(=O)Nc2ccc(S(=O)(=O)NC3CCCCC3)cc2)s1 (stereo not given) | > 100 µM
CC(=O)c1cccc(S(=O)(=O)N2CCC(C(=O)O)(c3ccccc3)CC2)c1 | > 100 µM
CC(=O)Oc1cc2c(c3ccccc13)CCC2=O | > 100 µM
COC(=O)n1c(=O)oc2ccccc21 | > 100 µM
O=C1c2cc([N+](=O)[O-])cc3cc([N+](=O)[O-])cc(c23)C(=O)N1c1ccccn1 | > 100 µM
CCn1c(=O)c(C(=O)NCCNCCO)c(O)c2ccccc21 | > 100 µM
CCN(Cc1ccncc1)C(=O)c1cc(COc2ccc(F)cc2F)on1 | > 100 µM
CCC(=O)Nc1nc2nc(-c3ccccc3)cc(-c3ccccc3)n2n1 | > 100 µM
CC(C)COC(=O)C1C2C=CC3(CN(C(C)c4ccc(Br)cc4)C(=O)C13)O2 (stereo not given) | > 100 µM
Cc1cc2cc(CNC(=O)c3ccco3)ccc2n1C | > 100 µM

same assay, conditions: NRP-1 b1b2 / RPARPAR peptide binding, FP or AlphaScreen; FP, mean of runs

SMILES | IC50
O=C(c1cccc(F)c1)N1CCN(c2ccc([N+](=O)[O-])c(N3CCCCC3)c2)CC1 | > 95 µM (inactive)
N#CC(C#N)=Cc1cc2ccccc2nc1N1CCCCC1 | > 95 µM (inactive)
COc1cc(C(=O)Nc2cc3c(cc2N2CCCCC2)n(C)c(=O)n3C)cc(OC)c1OC | > 95 µM (inactive)
Cc1ccc(C)c(-n2c(SCC(=O)NC(C(=O)O)C(C)C)nnc2-c2cccc(Cl)c2)c1 (stereo not given) | > 95 µM (inactive)
Cc1ccc(Cl)c(NC(=O)CSc2cccc[n+]2[O-])c1Cl | > 95 µM (inactive)
Cc1ccc2cc(CN(c3ccccc3C)S(=O)(=O)c3ccccc3)c(=O)[nH]c2c1 | > 95 µM (inactive)
CCOc1ccc(S(=O)(=O)NNC(=O)c2cc3ccccc3o2)cc1 | > 95 µM (inactive)
Oc1ccc(-c2nc3ncccn3c2Nc2ccc3c(c2)OCO3)cc1 | > 95 µM (inactive)
CCCc1c(C)nc(N2CCN(c3ccccc3OC)CC2)[nH]c1=O | > 95 µM (inactive)
CN(C)/C=C/c1c([N+](=O)[O-])c2ccc(O)cc2n1-c1ccccc1 | > 95 µM (inactive)
N=C1C(=O)OCC1c1cc(Cl)ccc1NC(=O)Nc1ccccc1 (stereo not given) | > 95 µM (inactive)
CCCn1c(C)cc(C(=O)CSc2nc3nc(C)cc(C)n3n2)c1C | > 95 µM (inactive)
C/C(=N\NC(=O)c1cc(O)ccc1O)c1cccc(NC(=O)c2cccc(Cl)c2)c1 | > 95 µM (inactive)
CCOC(=O)N1CCN(C(=O)Nc2ccc3nc(C)c(C)nc3c2)CC1 | > 95 µM (inactive)
O=C(NCCN1CCN(C(=O)c2cccc(OC(F)F)c2)CC1)c1cccc(OC(F)F)c1 | > 95 µM (inactive)
O=C1CCC[C@@H]2Cc3nc4cc5c(cc4cc3[C@@H]3CCN1[C@H]23)OCO5 | > 95 µM (inactive)
Cc1ccc(N(C(=O)c2ccc(CN3CCOCC3)o2)C(C(=O)NCCC(C)C)c2cccs2)c(C)c1 (stereo not given) | > 95 µM (inactive)
Cc1ccc(NC(=O)c2ccc3c(c2)S(=O)(=O)c2ccccc2C3=O)cc1S(=O)(=O)N1CCOCC1 | > 95 µM (inactive)
CCc1ccccc1NC(=O)c1ccccc1N1C(=O)C2C3C=CC(C3)C2C1=O (stereo not given) | > 95 µM (inactive)
Cc1ccc(S(=O)(=O)NCC(=O)N(c2ccccc2)C(C(=O)NCc2ccccc2)c2ccco2)cc1 (stereo not given) | > 95 µM (inactive)
CCOC(=O)Cc1ccc(NS(=O)(=O)c2ccc(SC)cc2)cc1 | > 95 µM (inactive)
CC1(c2ccccc2)CC(C)(C)n2c(O)c(C3=NC(=S)NC3=O)c3cccc1c32 (stereo not given) | > 95 µM (inactive)
